A short description of data set [1]: Test Example 6: blood concentration after 7-day intraperitoneal administration. The format is in vivo, mice (C57BL/6J). As to conditions: intraperitoneal 3 mg/kg/day for 7 days; 24 hours after the 7th administration; individual mice. How it is done:
Sirolimus (3 mg/kg/day) or a placebo (saline) was intraperitoneally administered to mice (C57BL/6J, body weight: 20 g) once a day for 7 days. After 24 hours from the administration on the 7th day, blood was collected from each of the mice, and blood sirolimus concentration was measured.
(§1) The measurement of the blood concentration was performed by the same method as in Test Example 3. The blood concentration after the topical application to the skin was one 26th in terms of average value as compared to the blood concentration after systemic administration by the intraperitoneal administration. […] The action mechanism by which epileptic seizures are suppressed through systemic administration and the mechanism by which epileptic seizures are suppressed through topical application may differ from each other.

Data set [2] relates to Tuberous sclerosis complex model mice. In words: Test Example 5: number of epileptic seizures (intraperitoneal administration). The class given is in vivo. As to conditions: intraperitoneal 3 mg/kg/day once a day for 7 days; observed 2 minutes 5 times per day; n=6. How it is done: FIG. 3 is a graph showing results obtained by intraperitoneally administering sirolimus (3 mg/kg/day) or saline to model mice and control mice (normal mice) once a day for 7 days (n=6 in each group). Homo represents tuberous sclerosis complex model mice, and Ct represents control mice (normal mice). *P<0.05, **P<0.01
Sirolimus (3 mg/kg/day) or a placebo (saline) was intraperitoneally administered to model mice and normal mice similar to those in Test Example 1 once a day for 7 days. The number of seizures was measured by observing the mice for 2 minutes 5 times per day (n=6 in each group). […] The number of seizures over 7 days in the group intraperitoneally administered sirolimus was about 5, which was nearly equal to the number of seizures in the case where the 0.2 wt % sirolimus gel was administered to the forehead once a day at 5 mg (10 μg in terms of sirolimus).

The nature of data set [3]: Test Example 6: blood concentration after 7-day topical application. The class given is in vivo, ICR mice. As to conditions: 0.2 wt % sirolimus gel 5 mg (10 μg sirolimus) on shaved forehead once a day, 7 days; 24 hours after last; individual mice. How it is done: ICR mice (body weight: about 37 g) were obtained (Japan SLC, Inc.). The 0.2 wt % sirolimus gel prepared in Production Example 3 or a placebo (only the base) was applied to their shaved forehead once a day at 5 mg each (10 μg in terms of sirolimus). After 24 hours from the administration on the 7th day, blood was collected from each of the mice, and blood sirolimus concentration was measured.
as §1

Values joined by “and” are separate entries in the source; they are usually repeats but may differ in a detail not shown here. Equal values may be shown once.

For the molecule `CO[C@H]1C[C@@H]2CC[C@@H](C)[C@@](O)(O2)C(=O)C(=O)N2CCCC[C@H]2C(=O)O[C@H]([C@H](C)C[C@@H]2CC[C@@H](O)[C@H](OC)C2)CC(=O)[C@H](C)/C=C(\C)[C@@H](O)[C@@H](OC)C(=O)[C@H](C)C[C@H](C)/C=C/C=C/C=C/1C` [Sirolimus, sirolimus], the blood sirolimus concentration is 94.43 ng/ml · blood and 85.59 ng/ml · blood and 48.55 ng/ml · blood and 216.83 ng/ml · blood in data set [1]; 3.87 ng/ml · blood and 2.85 ng/ml · blood and 5.98 ng/ml · blood in data set [3]. In data set [2], the “number of seizures over 7 days” value is “about 5”.

Values taken from patent US20240058365A1, “External Preparation for Treating Epilepsy or Autism Spectrum Disorder” (OSAKA UNIVERSITY, priority 2019, published 2024).
